# Target: T1, Protein deacetylase HDAC6 (Homo sapiens) (UniProt Q9UBN7)
# T1 sequence (whole entry): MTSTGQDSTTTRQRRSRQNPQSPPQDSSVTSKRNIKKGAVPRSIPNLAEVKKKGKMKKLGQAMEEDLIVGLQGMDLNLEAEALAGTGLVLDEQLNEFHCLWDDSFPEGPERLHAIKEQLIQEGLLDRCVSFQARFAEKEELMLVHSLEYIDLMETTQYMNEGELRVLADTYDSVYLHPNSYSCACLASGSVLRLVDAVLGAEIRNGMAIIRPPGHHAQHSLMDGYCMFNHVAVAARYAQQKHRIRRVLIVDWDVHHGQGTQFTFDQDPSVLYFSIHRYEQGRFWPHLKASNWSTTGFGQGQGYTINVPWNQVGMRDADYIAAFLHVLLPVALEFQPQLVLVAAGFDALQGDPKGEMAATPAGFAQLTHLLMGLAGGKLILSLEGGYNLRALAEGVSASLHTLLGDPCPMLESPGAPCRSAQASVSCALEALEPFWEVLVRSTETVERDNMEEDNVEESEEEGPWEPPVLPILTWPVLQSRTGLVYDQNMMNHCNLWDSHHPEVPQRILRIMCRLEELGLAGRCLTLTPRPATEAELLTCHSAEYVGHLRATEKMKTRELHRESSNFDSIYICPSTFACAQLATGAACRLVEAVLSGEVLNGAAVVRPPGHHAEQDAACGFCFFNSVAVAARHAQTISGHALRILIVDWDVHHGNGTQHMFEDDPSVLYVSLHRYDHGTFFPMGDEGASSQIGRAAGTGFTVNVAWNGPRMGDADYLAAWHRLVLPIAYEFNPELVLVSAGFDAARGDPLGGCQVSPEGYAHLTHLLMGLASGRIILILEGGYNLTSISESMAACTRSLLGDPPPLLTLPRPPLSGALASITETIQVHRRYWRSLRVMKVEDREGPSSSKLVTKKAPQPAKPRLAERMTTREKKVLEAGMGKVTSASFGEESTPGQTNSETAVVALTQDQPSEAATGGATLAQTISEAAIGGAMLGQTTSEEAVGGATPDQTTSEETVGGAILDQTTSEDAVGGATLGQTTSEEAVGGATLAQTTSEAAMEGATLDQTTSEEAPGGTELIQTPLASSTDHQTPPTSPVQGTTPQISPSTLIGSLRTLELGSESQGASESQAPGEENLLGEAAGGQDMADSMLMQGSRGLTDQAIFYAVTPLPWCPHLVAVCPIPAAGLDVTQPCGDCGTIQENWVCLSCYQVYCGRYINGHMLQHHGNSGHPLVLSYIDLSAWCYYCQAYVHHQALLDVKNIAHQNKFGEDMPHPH
# Assay: Inhibition of full length HDAC6 (unknown origin) extracted from Sf9 insect cells at 10 uM preincubated for 60 mins followed by substrate addition and measured after 20 mins by luminescence based HDAC-GloTM I/II assay relative to control
# Assay type: cell-free
# Conditions: time 80.0 min
row,Compound,inhibition
1,O=C1c2cc(-c3nnc(C(F)F)o3)ccc2CN1[C@@H](c1ccccn1)[C@H](O)c1ccccn1,100%
2,O=C1c2cc(-c3nnc(C(F)F)o3)ccc2CN1[C@H](C1CC1)[C@@H](O)c1ncccn1,96%
3,O=C1c2cc(-c3nnc(C(F)F)o3)ccc2CN1[C@H](c1ccccn1)[C@@H](O)c1ccccn1,101%
4,O=C1c2cc(-c3nnc(C(F)F)o3)ccc2CN1[C@H](c1cccc(F)c1)[C@@H](O)c1ccccn1 (racemic),100%
5,O=C1c2cc(-c3nnc(C(F)F)o3)ccc2CN1[C@H](C1CCC(F)(F)CC1)[C@@H](O)c1ccc(F)nc1 (racemic),100%
6,O=C1c2cc(-c3nnc(C(F)F)o3)ccc2CN1[C@H](c1cccnn1)[C@@H](O)c1cccc(Cl)c1,101%
7,O=C1c2cc(-c3nnc(C(F)F)o3)ccc2CN1[C@H](C1CC1)[C@@H](O)c1ccccn1,100%
8,O=C1c2cc(-c3nnc(C(F)F)o3)ccc2CN1[C@H](c1ccc(F)cc1)[C@@H](O)c1ccc(F)nc1,99%
9,O=C1c2cc(-c3nnc(C(F)F)o3)ccc2CN1[C@H](c1ccc(F)c(F)c1)[C@@H](O)c1ccccn1,99%
10,O=C1c2cc(-c3nnc(C(F)F)o3)ccc2CN1[C@H](C1CC1)[C@@H](O)c1cccc(F)c1,100%
11,O=C1c2cc(-c3nnc(C(F)F)o3)ccc2CN1[C@H](c1ccccn1)[C@@H](O)c1ccc(C(F)(F)F)cn1,99%
12,O=C1c2cc(-c3nnc(C(F)F)o3)ccc2CN1[C@H](c1cnccn1)[C@@H](O)c1cccc(Cl)c1,100%
13,O=C1c2cc(-c3nnc(C(F)F)o3)ccc2CN1[C@H](C1CC1)[C@@H](O)c1ccc(F)cn1,100%
14,O=C1c2cc(-c3nnc(C(F)F)o3)ccc2CN1[C@H](c1ccc(F)cc1)[C@@H](O)C1CCOCC1 (racemic),99%

# Reference: ChEMBL document CHEMBL6153156, “Potential of Histone Deacetylase 6 Inhibitors as a Treatment of Neurodegenerative Diseases” (ACS Med Chem Lett, 2025)
